From paper PMC3351969 (European Journal of Medical Research, 2009)

How the values were obtained:
[1] = test system: cytochrome p450 3A4 (CYP3A4); test: monoethylglycinexylidide; type: in vivo, human
[2] = indocyanine green clearance; type: in vivo, human; conditions: HIV-patients, before and 6 months after initiation of HAART

Row | MEGX test ([1]; HIV-patients treated with various ART combinations, p = 0.23 vs healthy controls) | MEGX test ([1]; healthy controls without medication) | Compound | indocyanine green clearance in relation to anti-retroviral regimens [2]
1 | 49.9 ± 25.48 µg/L | 66.29 ± 38.55 µg/L | CCNCC(=O)Nc1c(C)cccc1C [MEGX, monoethylglycinexylidide] | 
2 |  |  | CC1(C)C(/C=C/C=C/C=C/C=C2\N(CCCCS(=O)(=O)O)c3ccc4ccccc4c3C2(C)C)=[N+](CCCCS(=O)(=O)[O-])c2ccc3ccccc3c21 [indocyanine green] | no correlation could be found
